The test system of this assay is locally advanced or metastatic selected solid tumors (ER+HER2− breast cancer, CRPC, or NSCLC). Nature of the assay: Phase 1 clinical trial: clinical efficacy (tumor response). The class given is in vivo, human. The conditions noted are these: for confirmed and durable partial responses (PR): ER+/HER2− breast cancer; for confirmed and durable partial responses, response-evaluable pts with ER+/HER2− mBC: progressed on prior ET+CDK4/6 inhibitor. The text has this: The patients in this trial are intolerant of or resistant to standard therapy.
Study Design: The overall study design is depicted in FIG. 1. The study contains two parts, a dose escalation (Part 1) followed by a dose expansion (Part 2). Not shown in FIG. 1 are Part 1D and Part 2D, which are additional arms in Part 1 and Part 2 in the study design and are described below.
Part 1A (Monotherapy Dose Escalation) contains dose escalation as monotherapy in patients with locally advanced or metastatic ER+HER2− breast cancer, CRPC, or NSCLC that is resistant or intolerant to standard therapy or for whom no standard therapy is available, to determine the maximum tolerated dose (MTD) and select the RDE. […] A 2-parameter Bayesian Logistic Regression Model (BLRM) was used for dose finding.
Part 1B (Combination Dose Escalation), COMPOUND A in combination with fulvestrant was evaluated for dose finding in patients with locally advanced or metastatic ER+HER2− breast cancer (2L+) who progressed after at least one line of treatment with an endocrine therapy and a CDK4/6 inhibitor to determine the MTD and RDE for this combination. Combination RDE may be different from monotherapy RDE due to potential toxicity overlap. A 5-parameter BLRM was used for dose finding.

[1] abbreviates: Parts 1A + 1B, of the 10 with SD.

Values joined by “and” are separate entries in the source; they are usually repeats but may differ in a detail not shown here. Equal values may be shown once.

Take `COc1ccccc1S(=O)(=O)Nc1noc2cc(Cn3cccn3)cc(OC)c12` [COMPOUND A, 2-Methoxy-N-{4-methoxy-6-[(1H-pyrazol-1-yl)methyl]-1,2-benzoxazol-3-yl}benzene-1-sulfonamide]: the “Duration of response (DOR)” value runs as follows: (1 patient in Part 1A) 19.4 months; (2 patients in Part 1B (one value per patient)) 8.1 months and 10 months. Also, the clinical efficacy entry (31 participants treated, cut-off 23 Mar. 2022) is “early signs of clinical efficacy”. Besides, the “confirmed and durable partial responses (PR)” value is, setting by setting: (Part 1A (8 mg monotherapy)) 1 patients; (Part 1B (5 mg QD/fulvestrant 500 mg)) 2 patients; (among response-evaluable patients (n=22)) 3 patients. Moreover, the “confirmed and durable partial responses, response-evaluable pts with ER+/HER2− mBC” value (Part 1A (monotherapy)) is given as “⅛”; the “confirmed and durable partial responses, response-evaluable pts with ER+/HER2− mBC” value (Part 1B (5 mg QD + fulvestrant)) is 2/4. Also, under setting [1], the “Stable disease (SD), patients with CRPC” value amounted to 4. Moreover, the “Stable disease (SD), patients with ER+/HER2− breast cancer” value under setting [1] stood at 5. Also, the “Stable disease (SD), patients with NSCLC” value under setting [1] is listed as 1. In addition, the “clinical responses in heavily treated patients with ER+HER2− breast cancer” value (as of 30 Sep. 2022) is “confirmed and durable clinical responses were observed”. In addition, the “patients with SD lasting ≥6 months” value (as of 30 Sep. 2022) is on record as “Three”. The “efficacy in ER+HER2− breast cancer patients” value (during dose escalation, as of 23 Mar. 2022) is recorded as “signs of efficacy”. Further, the “duration of SD” value came to 9.1 months (patient with CRPC, 5 mg QD); 11.3 months (patient with CRPC, 15 mg QD); 7.5 months (patient with ER+/HER2− breast cancer, 8 mg QD).

For the origin of these results see US20260027087A1, “DOSING REGIMENS COMPRISING A KAT6 INHIBITOR FOR THE TREATMENT OF CANCER” (PFIZER INC., priority 2022, published 2026).
